Measurements: article PMC8154581, “Discovery of Novel Thiophene-arylamide Derivatives as DprE1 Inhibitors with Potent Antimycobacterial Activities” (Journal of Medicinal Chemistry, 2021)
pIC50: −log10 of the molar value. ≈ marks a conversion by molar mass, not a printed value. Where “and” joins values, the source holds several entries; their conditions need not be identical. Equal values may be shown once. Read-outs that look alike come from different tables or passages of the source.

Key:
Vero cells = experiment: Cytotoxicity assay in Vero cells (MTT); type: cell-based; conditions: for IC50: Chlorocebus sabaeus, Vero cells, 48 h, read-out: IC50 (Vero)
M. tuberculosis H37Rv [1] = experiment: MIC against replicating M. tuberculosis H37Rv, microplate Alamar blue assay (MABA); type: cell-based; conditions: for MIC: Mycobacterium tuberculosis, H37RV
hERG K+ channel = hERG K+ channel (Homo sapiens, UniProt Q12809); experiment: Inhibition of the hERG K+ channel, electrophysiology
[2] = Cytotoxicity assay in HepG2 cells (MTT); conditions: human
[3] = Hepatocyte stability assay, mouse; conditions: male, mouse hepatocytes
[4] = test system: M. tuberculosis (H37Rv) in infected mouse J774A.1 macrophages; type: cell-based
[5] = Hepatocyte stability assay, human; conditions: human hepatocytes
[6] = Pharmacokinetic studies in Balb/c mice; conditions: male, Balb/c, mouse, in vivo
Mt-DprE1 = Mt-DprE1 (Mycobacterium tuberculosis, UniProt P9WJF1); type: biochemical, M. tuberculosis
M. tuberculosis H37Rv [7] = experiment: In vivo efficacy in acute TB infection model in Balb/c mice; conditions: for log10 CFU/lung: oral, three weeks, INH 25 mg/kg; for Δlog10 CFU: in vivo
M. tuberculosis = test system: M. tuberculosis; set-up: method as in PMID 19299584, PMID 24500695; conditions: antimycobacterial activity; cited from earlier work
[8] = supplementary CSV, same values as Tables 1-3, read-out: Minimal inhibit concentration
[9] = first column (batch with 25a; untreated 6.44), 25a 100 mg/kg
[10] = against M. tuberculosis H37Rv, Tables 1-3, read-out: MIC

hERG K+ channel, sequence (Q12809 whole entry): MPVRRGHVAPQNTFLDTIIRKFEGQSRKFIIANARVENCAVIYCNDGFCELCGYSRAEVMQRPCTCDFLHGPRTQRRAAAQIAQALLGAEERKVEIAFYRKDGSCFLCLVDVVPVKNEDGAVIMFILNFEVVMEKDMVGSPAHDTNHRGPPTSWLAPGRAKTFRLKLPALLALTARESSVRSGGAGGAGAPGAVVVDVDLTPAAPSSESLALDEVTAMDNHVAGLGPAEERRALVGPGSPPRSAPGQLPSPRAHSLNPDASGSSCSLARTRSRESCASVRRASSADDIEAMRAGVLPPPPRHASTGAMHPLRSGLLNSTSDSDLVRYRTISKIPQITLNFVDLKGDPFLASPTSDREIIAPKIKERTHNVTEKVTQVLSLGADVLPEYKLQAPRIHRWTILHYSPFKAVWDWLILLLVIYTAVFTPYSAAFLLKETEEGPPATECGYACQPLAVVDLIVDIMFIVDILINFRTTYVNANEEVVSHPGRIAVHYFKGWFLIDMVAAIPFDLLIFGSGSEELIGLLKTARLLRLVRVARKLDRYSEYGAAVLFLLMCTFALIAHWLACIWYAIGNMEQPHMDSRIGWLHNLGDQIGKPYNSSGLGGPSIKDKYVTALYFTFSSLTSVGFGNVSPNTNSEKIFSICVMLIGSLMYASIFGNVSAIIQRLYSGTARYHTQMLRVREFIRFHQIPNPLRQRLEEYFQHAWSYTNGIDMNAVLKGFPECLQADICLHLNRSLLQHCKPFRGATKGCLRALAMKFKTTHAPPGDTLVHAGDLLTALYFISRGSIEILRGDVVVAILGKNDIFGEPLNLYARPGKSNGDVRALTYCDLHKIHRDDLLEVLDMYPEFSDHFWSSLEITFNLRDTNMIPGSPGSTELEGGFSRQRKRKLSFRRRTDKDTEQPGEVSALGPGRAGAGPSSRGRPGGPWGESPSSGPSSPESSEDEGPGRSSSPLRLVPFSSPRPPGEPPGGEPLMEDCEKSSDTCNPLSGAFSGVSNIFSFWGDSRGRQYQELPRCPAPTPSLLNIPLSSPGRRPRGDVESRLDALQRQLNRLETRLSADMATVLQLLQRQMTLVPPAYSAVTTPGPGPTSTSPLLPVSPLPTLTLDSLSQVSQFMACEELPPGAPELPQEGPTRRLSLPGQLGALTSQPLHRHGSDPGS
Mt-DprE1, sequence (P9WJF1 whole entry, looked up): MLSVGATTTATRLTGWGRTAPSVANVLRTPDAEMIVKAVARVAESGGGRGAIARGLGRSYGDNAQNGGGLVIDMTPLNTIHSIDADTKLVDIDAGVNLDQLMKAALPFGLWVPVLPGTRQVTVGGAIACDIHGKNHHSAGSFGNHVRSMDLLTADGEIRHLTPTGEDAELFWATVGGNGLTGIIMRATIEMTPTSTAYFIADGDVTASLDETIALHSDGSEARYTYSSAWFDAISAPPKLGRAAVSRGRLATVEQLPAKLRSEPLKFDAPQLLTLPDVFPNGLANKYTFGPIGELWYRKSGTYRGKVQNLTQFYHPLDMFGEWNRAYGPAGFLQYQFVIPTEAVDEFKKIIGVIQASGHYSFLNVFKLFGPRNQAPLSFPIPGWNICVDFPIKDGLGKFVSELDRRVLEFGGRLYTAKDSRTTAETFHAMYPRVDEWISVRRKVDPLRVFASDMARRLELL

## CCOC(=O)NC(=O)c1ccsc1NC(=O)c1ccc(C(=O)N2CCCCC2)c(F)c1 [Compound 24f, Ethyl (2-(3-Fluoro-4-(piperidine-1-carbonyl)benzamido)thiophene-3-carbonyl)carbamate]
Vero cells
  IC50: > 64 µg/mL
M. tuberculosis H37Rv [1]; Table 4
  MIC H37Rv: 0.020 µg/mL (≈ 0.0447 µM)
M. tuberculosis H37Rv [1]; against M. tuberculosis H37Rv, Tables 1-3
  MIC: < 0.016 µg/mL
M. tuberculosis H37Rv [1]; [8]
  MIC: < 0.016 µg/mL
M. tuberculosis H37Rv [1]; Table 4, read-out: MIC H37Rv
  MIC: 0.02 to 0.12 µg/mL (≈ 0.0447 to 0.268 µM)
hERG K+ channel
  pIC50: < 4.52
[2]
  IC50 at 48 h: > 64 µg/mL
[3]
  half-life at 1 µM: 43.7 min
  remaining at 0.5 h, 1 µM: 62.1%
[4]
  log10 CFU/macrophages: 4.18 ± 0.04 log10 CFU and 4.41 ± 0.10 log10 CFU
[5]
  half-life at 1 µM: 38.1 min
  remaining at 0.5 h, 1 µM: 58%
[6]; iv, 5 mg/kg
  AUC(0-inf) at 24 h: 184 ng·h/mL
  AUC(0-t) at 24 h: 183 ng·h/mL
  Cmax at 24 h: 1300 ng/mL
  MRT inf at 24 h: 7.8 min
  clearance at 24 h: 479 mL/min/kg
  half-life at 24 h: 7.8 min
[6]; po, 50 mg/kg
  AUC(0-inf) at 24 h: 57.9 ng·h/mL
  AUC(0-t) at 24 h: 41.9 ng·h/mL
  Cmax at 24 h: 25.4 ng/mL
  MRT inf at 24 h: 126 min
  Tmax at 24 h: 60 min
  bioavailability at 24 h: 2.3%
  half-life at 24 h: 102 min
other
  melting point: 186 to 187 °C
Mt-DprE1
  IC50 DprE1: 0.2 ± 0.04 µg/mL (≈ 0.447 µM)

## NNC(=O)c1ccncc1 [INH, isoniazid, reference compound]
M. tuberculosis H37Rv [1]; Table 4, read-out: MIC H37Rv
  MIC: 0.019 µg/mL (≈ 0.139 µM)
M. tuberculosis H37Rv [7]; [9]
  log10 CFU/lung: 1.76 ± 0.49 log10 CFU
M. tuberculosis H37Rv [7]
  Δlog10 CFU: 4.68/5.17 log10 CFU
M. tuberculosis H37Rv [7]; second column (another batch, with TCA1; untreated 7.10), TCA1 100 mg/kg
  log10 CFU/lung: 1.93 ± 0.21 log10 CFU

## COC(=O)NC(=O)c1ccsc1NC(=O)c1ccc(C(=O)N2CCCCC2)c(F)c1 [Compound 25b, Methyl (2-(3-Fluoro-4-(piperidine-1-carbonyl)benzamido)thiophene-3-carbonyl)carbamate]
Vero cells
  IC50: > 64 µg/mL
M. tuberculosis H37Rv [1]; Table 4
  MIC H37Rv: 0.030 µg/mL (≈ 0.0692 µM)
M. tuberculosis H37Rv [1]; [10]
  MIC: 0.03 µg/mL (≈ 0.0692 µM)
M. tuberculosis H37Rv [1]; [8]
  MIC: 0.03 µg/mL (≈ 0.0692 µM)
M. tuberculosis H37Rv [1]; Table 4, read-out: MIC H37Rv
  MIC: 0.02 to 0.12 µg/mL (≈ 0.0461 to 0.277 µM)
hERG K+ channel
  pIC50: < 4.52
[2]
  IC50 at 48 h: > 64 µg/mL
[3]
  half-life at 1 µM: 12.5 min
  remaining at 0.5 h, 1 µM: 19%
[4]
  log10 CFU/macrophages: 4.59 ± 0.05 log10 CFU and 4.75 ± 0.21 log10 CFU
  Δlog10 CFU: 0.93 log10 CFU and 0.77 log10 CFU
[5]
  half-life at 1 µM: 32.6 min
  remaining at 0.5 h, 1 µM: 52.8%
Mt-DprE1
  IC50 DprE1: 0.4 ± 0.1 µg/mL (≈ 0.923 µM)

## CCOC(=O)NC(=O)c1ccsc1NC(=O)c1ccc(C(=O)NC2CCC(C)(C)CC2)cc1 [Compound 23f, Ethyl (2-(4-((4,4-Dimethylcyclohexyl)carbamoyl)benzamido)thiophene-3-carbonyl)carbamate]
Vero cells
  SI: >68
  IC50: > 64 µg/mL
M. tuberculosis H37Rv [1]; [10]
  MIC: 0.94 µg/mL (≈ 1.99 µM)
M. tuberculosis H37Rv [1]; [8]
  MIC: 0.94 µg/mL (≈ 1.99 µM)
other
  melting point: > 250 °C

## C[C@H]1COC2(CCN(c3nc(=O)c4cc(C(F)(F)F)cc([N+](=O)[O-])c4s3)CC2)O1 [BTZ043]
M. tuberculosis
  MICs: < 0.016 µg/mL

## CCOC(=O)NC(=O)c1ccsc1NC(=O)c1ccc(C(=O)Nc2ccccc2)cc1 [Compound 23g, Ethyl (2-(4-(Phenylcarbamoyl)benzamido)thiophene-3-carbonyl)carbamate]
Vero cells
  SI: 191
  IC50: 23 µg/mL (≈ 52.5 µM)
M. tuberculosis H37Rv [1]; [10]
  MIC: 0.12 µg/mL (≈ 0.274 µM)
M. tuberculosis H37Rv [1]; [8]
  MIC: 0.12 µg/mL (≈ 0.274 µM)
other
  melting point: > 250 °C

## COC(=O)NC(=O)c1ccsc1NC(=O)c1ccc(C(=O)N2CCCCC2)cc1 [Compound 25a, Methyl (2-(4-(Piperidine-1-carbonyl)benzamido)thiophene-3-carbonyl)carbamate]
Vero cells
  IC50: > 64 µg/mL
M. tuberculosis H37Rv [1]; [10]
  MIC: 0.19 µg/mL (≈ 0.457 µM)
M. tuberculosis H37Rv [1]; [8]
  MIC: 0.19 µg/mL (≈ 0.457 µM)
hERG K+ channel
  pIC50: 4.65
[2]
  IC50 at 48 h: > 64 µg/mL
[3]
  half-life at 1 µM: 27.1 min
  remaining at 0.5 h, 1 µM: 46.5%
[4]
  log10 CFU/macrophages: 4.77 ± 0.10 log10 CFU and 5.06 ± 0.03 log10 CFU
  Δlog10 CFU: 0.75 log10 CFU and 0.46 log10 CFU
[5]
  half-life at 1 µM: 20.3 min
  remaining at 0.5 h, 1 µM: 35.9%
M. tuberculosis H37Rv [7]; [9]
  log10 CFU/lung: 4.42 ± 0.45 log10 CFU
M. tuberculosis H37Rv [7]
  Δlog10 CFU: 2.02 log10 CFU
[6]; iv, 5 mg/kg
  AUC(0-inf) at 24 h: 833 ng·h/mL
  AUC(0-t) at 24 h: 830 ng·h/mL
  Cmax at 24 h: 4560 ng/mL
  MRT inf at 24 h: 12 min
  clearance at 24 h: 101 mL/min/kg
  half-life at 24 h: 15.6 min
[6]; po, 50 mg/kg
  AUC(0-inf) at 24 h: 657 ng·h/mL
  AUC(0-t) at 24 h: 651 ng·h/mL
  Cmax at 24 h: 486 ng/mL
  MRT inf at 24 h: 66 min
  Tmax at 24 h: 34.8 min
  bioavailability at 24 h: 7.9%
  half-life at 24 h: 51 min
Mt-DprE1
  IC50 DprE1: 0.9 ± 0.2 µg/mL (≈ 2.17 µM)

## CCOC(=O)NC(=O)c1ccsc1NC(=O)c1ccc(C(=O)N2CCCCC2)cc1[N+](=O)[O-] [Compound 24e, Ethyl (2-(2-Nitro-4-(piperidine-1-carbonyl)benzamido)thiophene-3-carbonyl)carbamate]
Vero cells
  SI: >34
  IC50: > 64 µg/mL
M. tuberculosis H37Rv [1]; [10]
  MIC: 1.86 µg/mL (≈ 3.92 µM)
M. tuberculosis H37Rv [1]; [8]
  MIC: 1.86 µg/mL (≈ 3.92 µM)
other
  melting point: 113 to 114 °C
